Molecules are shown by their SMILES. In brackets after ≈: the same amount, converted by molar mass.

The values below come from paper PMC11677424, “Early-Stage IM Treatment with the Host-Derived Immunostimulant CPDI-02 Increases Curative Protection of Healthy Outbred Mice Against Subcutaneous Infection with Community-Acquired Methicillin-Resistant Staphylococcus aureus USA300” (Pharmaceutics, 2024).

Data set [1] can be described thus: Preliminary PK and distribution after IM or IV administration (LC-MS/MS). Format: in vivo, female outbred CD-1 mice. The procedure: Female outbred CD-1 mice (4-6 weeks old) were infected SQ with CA-MRSA, as described (Section 2.4). At 6 h post-infection, vehicle alone (PBS) or vehicle containing 12.5 mg CPDI-02/kg (IV) or 50 mg/kg (IM) and blood samples (50 µL) were collected from the submandibular vein (Medipoint Goldenrod Lancet, 5 mm) at 2, 4, 8, and 24 h post-treatment into EDTA-coated tubes containing 200 µL of acidified methanol (0.1% formic acid v/v), and immediately mixed by repeated inversion. Samples were pelleted (16,000 RCF) for 10 min, and supernatants were stored at −80 °C until analysis. At 24 h post-challenge, mice were euthanized, and rear flanks were disinfected with 70% ethanol. Abscesses (Section 2.5) and organs were excised, rinsed with deionized H2O, dried, and 50 mg sections were collected in 200 µL of acidified methanol, homogenized using a gentleMACS Dissociator (Miltenyi Biotec 130-093-235, Tokyo, Japan), and stored at −80 °C until analysis.
Peptide quantitation was performed using a Waters ACQUITY UPLC system coupled to a Xevo TQ-XS Tandem Quadrupole Mass Spectrometer with electrospray ionization. […] The following MRM m/z values were monitored: 621.4 > 84 and 621.4 > 100 for the analyte and IS, respectively. Peptide concentrations were determined using analyte-to-IS peak area ratios. […]

Data set [2] relates to healthy male and female outbred CD-1 mice. Kind of data set: Repeat IM dosing in healthy CD-1 mice. In kind it is in vivo. The procedure: Sixty CD-1 mice (thirty male and thirty female) approximately six weeks old were randomized into six cohorts (three cohorts for each gender) and then intramuscularly administered either vehicle alone (filter-sterilized 0.2 μm endotoxin-free PBS), vehicle containing CPDI-02 at 50% the observed MTD [65 mg/kg], or CPDI-02 suspended in PBS at 100% the observed MTD [130 mg/kg] twice a week over 32 days (nine doses total). Mice were weighed prior to each dose administration. On the day of administration, mice were assigned a Pain and Distress Assessment Score (Table S1). Four days after the last treatment, through terminal cardiac bleed, whole blood was collected for complete blood count (CBC) with differential (Abaxis VetScan® HM5 Hematology Analyzer, Union City, CA, USA) and blood chemistry (Abaxis VetScan® VS-2 Blood Chemistry Analyzer). In addition, injection site muscle tissues were collected, fixed in 10% formalin for 48 h, and then embedded in paraffin. Paraffin samples were cut into sections and underwent an H&E stain, then analyzed for signs of inflammation and other tissue abnormalities utilizing a Nikon Eclipse E600 (Nikon Corporation, Tokyo, Japan) at 200× magnification, and imaged using a Lumenera Infinity 2 Microscope Camera.

A further data set in a line: physchem. The settings on record: aqueous buffer.
The subject of a further data set is CA-MRSA USA300 LAC. The experiment in a line: Curative treatment of female CD-1 mice infected SQ with CA-MRSA: abscess surface area by image analysis. In kind it is in vivo, Staphylococcus aureus. The settings on record: for effect on maximum abscess surface area or time to resolution vs vehicle alone: 6 treatments. As for the experimental part:
CA-MRSA USA300 LAC (Staphylococcus aureus Rosenbach, ATCC BAA-1756) was stored in 50% glycerol at −80 °C until use. To start a culture, a Tryptic Soy Agar (TSA; Remel) plate was streaked and incubated overnight at 37 °C. A single colony from the streaked agar plate was transferred to a 50 mL conical tube containing 30 mL of Tryptic Soy Broth (TSB; Remel) and incubated [37 °C] overnight while shaking [200 rpm]. The overnight culture was diluted [1:10] in TSB, incubated at 37 °C for ~2 h until A600 = 0.5 to 0.55, and pelleted [3000 g, 10 min] at 4 °C. The pellet was resuspended in PBS and pelleted as before and then resuspended in 0.05% (w/v) Cytodex-1 in sterile PBS (typical yield ~5 × 10^8 CFU/mL). MRSA concentration was confirmed by serial dilution in sterile PBS, dot plating on TSA plates, and incubation at 37 °C for 24 h before counting.
All procedures were approved by the University of Nebraska Medical Center Institutional Animal Care and Use Committee. Female outbred CD-1 mice (Charles Rivers, Strain Code 022, 4-6 weeks old) were acclimated in the animal facility for at least one week, and their rear flanks were shaved 24 h before the study. Mice were anesthetized with isoflurane and 0.100 mL of CA-MRSA stock solution (Section 2.3) was injected SQ (5 × 10^7 CFU total) from the left rear flank into the dorsal side. […] For IM (left caudal muscle) and SQ (left flank) administration, CPDI-02 was administered in 0.050 mL of sterile PBS [20 mg/mL] (volume adjusted to 50 mg/kg dose). For topical administration (TOP), CPDI-02 was applied to abscesses in 0.100 mL of ointment (3% w/v) (Section 2.2) using a positive displacement pipette [150 mg/kg dose]. For IV administration (tail vein), CPDI-02 was administered in 0.050 mL sterile PBS [5 mg/mL] (volume adjusted to 12.5 mg/kg dose). […] Mouse abscesses were imaged with reference scales daily over 10 days starting at 24 h post-challenge. Abscess surface areas were determined by image analysis (ImageJ®, ver.1.54h) and compared between vehicle and treatment group for each administration route over ten days post-challenge by repeated measurement with two-way ANOVA with Geisser–Greenhouse correction.

In the case of `CSCC[C@H](NC(=O)[C@H](CC(=O)O)NC(=O)[C@H](CCCCN)NC(=O)[C@H](Cc1ccccc1)NC(=O)[C@H](CO)NC(=O)[C@@H](N)Cc1ccc(O)cc1)C(=O)N1CCC[C@H]1C(=O)N(C)[C@@H](CC(C)C)C(=O)N[C@H](C)C(=O)N[C@@H](CCCNC(=N)N)C(=O)O` [CPDI-02], the “relative distribution to heart, lungs, liver, kidneys, spleen or brain, IM vs IV” value in data set [1] (IM 50 mg/kg vs IV 12.5 mg/kg, 18 h post-treatment, n = 3 to 5) was “no effect”. In data set [1] (abscess-bearing female CD-1 mice, IM 50 mg/kg vs IV 12.5 mg/kg at 6 h post-challenge, 2, 4, 8, 24 h post-treatment, n = 5), the “plasma concentrations after IM vs IV administration” value was “increased”. Besides, the “inflammation around the injection site vs vehicle alone” value in data set [2] (IM 65 and 130 mg/kg, dose-dependent, greater proportion of female than male mice, H&E) was “increased signs of mild to severe inflammation”. Moreover, in data set [2] (female mice, repeat IM 130 mg/kg, after the eighth and ninth IM injection, p = 0.0022), the “mortality vs vehicle alone” value was “increased mortality”. In addition, the “signs of distress up to 2 h after injection” value in data set [2] (male and female CD-1 mice, IM 65 or 130 mg/kg, 9 injections, any treatment group) is “No signs of distress”. Besides, the weight gain result in data set [2] (male or female CD-1 mice, IM 65 or 130 mg/kg twice per week over 32 days, 9 injections, n = 10) is “no effect”. Also, the “effect on CBC (including platelets, platecrit) or blood chemistry vs vehicle alone” value in data set [2] (male or female mice, IM 65 or 130 mg/kg, up to 4 days after final injection (Day 32), n = 5) is given as “did not”. Moreover, the “inflammation in thymus, heart, lungs, brain, liver, spleen, kidneys, femur bone marrow, popliteal lymph nodes, Peyer's patches” value in data set [2] (repeat IM 65 or 130 mg/kg, H&E) is listed as “no signs of inflammation”. Further, the solubility in the data set “physchem” was about 100 mg/mL (≈ 80.5 mM). For the same compound, the “effect of repeat treatment starting at 24 h post-challenge” value with CA-MRSA USA300 LAC (regardless of administration route) is given as “no effect”. Also, the “maximum abscess surface area (Day 1 post-challenge)” value with CA-MRSA USA300 LAC (repeat IM 50 mg/kg starting 6 h post-challenge, mean ± SEM, n = 10, vehicle 74 ± 11, p = 0.0052, SEM) stood at 31 ± 8 mm^2. For the same compound, the “effect on maximum abscess surface area or time to resolution vs vehicle alone” value is listed as “no effect” with CA-MRSA USA300 LAC (repeat IV (tail vein) 12.5 mg/kg starting 6 h post-challenge); “no effect” in the data set with CA-MRSA USA300 LAC (repeat SQ (left flank) 50 mg/kg starting 6 h post-challenge); “no effect” in the data set on CA-MRSA USA300 LAC (repeat topical (TOP), 0.100 mL of 3% w/v ointment on abscess, 150 mg/kg, starting 6 h post-challenge). In addition, the “time to resolution vs vehicle alone” value in the data set with CA-MRSA USA300 LAC (single IM 50 mg/kg at 6 h post-challenge, similar extent as repeated IM treatment) is given as “decreased”.

As a reminder, the solubility is the dissolved amount per volume that the medium holds.
